Laboratory results taken from patent publication US20260176320A1, “MODULATORS OF G-PROTEIN COUPLED RECEPTORS” (priority 2018, published 2026).
Where two headings read alike, the source gives them in different places. Numbered stars: 1 amine (or outer) side, 2 acyl side, 3 side chain; on linkers, the order of the positions; unused ones are H or OH. Square brackets hold non-standard residues; d marks the D form. Side chains are listed from the residue outwards. Peptide text beside a SMILES is read from it. * marks the point of attachment. X8 = O=C([C@@H](Cc1nn[nH]n1)N[*:1])[*:2]; γGlu = O=C(O)[C@H](CCC(=O)[*:2])N[*:1]; X2 = O=C(CSCC(=O)*)NCCN1C(=O)CSC1=O; Palmitoyl = CCCCCCCCCCCCCCCC(=O)*; X6 = O=C(CSCC(=O)*)NCCN1CCCCC1=O; Aib = CC(C)(N)C(=O)O

How the values were obtained:
GIP-R = target: T1, GIP-R (Homo sapiens, UniProt P48546); experiment: HitHunter cAMP assay (GIP-R); assay type: cell-based; details: Table 3A, cAMP; for Emax: read-out: (Emax) GIP-R
T1 sequence (P48546 22-466): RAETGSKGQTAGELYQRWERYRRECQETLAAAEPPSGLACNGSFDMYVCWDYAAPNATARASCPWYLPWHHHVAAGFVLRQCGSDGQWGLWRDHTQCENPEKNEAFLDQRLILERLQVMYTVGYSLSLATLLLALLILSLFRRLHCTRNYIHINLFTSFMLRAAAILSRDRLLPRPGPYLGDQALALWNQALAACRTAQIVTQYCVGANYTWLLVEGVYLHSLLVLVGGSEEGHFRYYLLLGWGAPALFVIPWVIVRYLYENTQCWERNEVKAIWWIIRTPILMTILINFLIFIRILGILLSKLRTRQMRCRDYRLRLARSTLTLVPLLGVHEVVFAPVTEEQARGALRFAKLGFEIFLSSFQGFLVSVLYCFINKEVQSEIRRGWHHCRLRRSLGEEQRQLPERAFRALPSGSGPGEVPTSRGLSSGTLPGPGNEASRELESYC
In short: (§1)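 Duplicate 22-point, 2-fold agonist titrations applied to receptor-expressing suspension cells in IBMX-containing HBSS; 30 min RT stimulation. Read: luminescent cAMP immunocompetition after O/N dark incubation.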

GLP-1R = GLP-1R (Homo sapiens, UniProt P43220); experiment: HitHunter cAMP assay (GLP-1R); assay type: cell-based; details: Table 3A, cAMP; for Emax: read-out: (Emax) GLP-1R
In short: as §1

Sequence of GLP-1R (P43220 24-463): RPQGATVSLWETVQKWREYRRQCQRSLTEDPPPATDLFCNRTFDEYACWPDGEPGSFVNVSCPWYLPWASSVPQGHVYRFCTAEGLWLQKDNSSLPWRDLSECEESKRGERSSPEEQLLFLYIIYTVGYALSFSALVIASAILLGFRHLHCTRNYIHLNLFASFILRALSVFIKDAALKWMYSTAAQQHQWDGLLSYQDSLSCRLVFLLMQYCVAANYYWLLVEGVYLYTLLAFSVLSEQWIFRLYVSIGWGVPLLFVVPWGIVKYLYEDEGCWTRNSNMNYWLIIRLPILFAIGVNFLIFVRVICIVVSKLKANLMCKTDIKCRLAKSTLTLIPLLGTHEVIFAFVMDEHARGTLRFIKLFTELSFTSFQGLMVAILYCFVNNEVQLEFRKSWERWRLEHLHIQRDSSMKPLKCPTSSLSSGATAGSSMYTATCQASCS

Row | Structure (SMILES) | Emax (GIP-R) [%] | EC50 (GIP-R; read-out: EC50 GIP-R/nM) [nM] | Emax (GLP-1R) [%] | EC50 (GLP-1R; read-out: EC50 GLP-1R/nM) [nM] | EC50 (GIP-R; EC50 GIP-R/nM) [nM] | EC50 (GLP-1R; EC50 GLP-1R/nM) [nM]
1 | CCCCCCCCCCCCCCCC(=O)N[C@@H](CCC(=O)NCCCC[C@H](NC(=O)[C@H](C)NC(=O)[C@H](C)NC(=O)[C@H](CCC(N)=O)NC(=O)[C@H](CCCCN)NC(=O)[C@H](CC(=O)O)NC(=O)[C@H](CC(C)C)NC(=O)[C@H](Cc1ccc(O)cc1)NC(=O)[C@@H](NC(=O)[C@H](CO)NC(=O)[C@H](Cc1ccc(O)cc1)NC(=O)[C@H](CC(=O)O)NC(=O)[C@H](CO)NC(=O)[C@@H](NC(=O)[C@H](Cc1ccccc1)NC(=O)[C@@H](NC(=O)CNC(=O)[C@H](CCC(=O)O)NC(=O)CSCC(=O)NCCN1C(=O)CSC1=O)[C@@H](C)O)[C@@H](C)O)[C@@H](C)CC)C(=O)N[C@@H](CCC(=O)O)C(=O)N[C@@H](Cc1ccccc1)C(=O)N[C@H](C(=O)N[C@@H](CC(N)=O)C(=O)N[C@@H](Cc1c[nH]c2ccccc12)C(=O)N[C@@H](CC(C)C)C(=O)N[C@@H](CC(C)C)C(=O)N[C@@H](C)C(=O)NCC(=O)NCC(=O)N1CCC[C@H]1C(=O)N[C@@H](CO)C(=O)N[C@@H](CO)C(=O)NCC(=O)N[C@@H](C)C(=O)N1CCC[C@H]1C(=O)N1CCC[C@H]1C(=O)N1CCC[C@H]1C(=O)N[C@@H](CO)C(=O)N[C@@H](CCCCN)C(N)=O)C(C)C)C(=O)O [Compound 200] | 66 | 100 to 1000 | 89 | 10 to 100 |  | 
2 | CCCCCCCCCCCCCCCC(=O)N[C@@H](CCC(=O)NCCCC[C@H](NC(=O)[C@H](CC(=O)O)NC(=O)[C@H](CO)NC(=O)[C@@H](NC(=O)[C@H](Cc1ccccc1)NC(=O)[C@@H](NC(=O)CNC(=O)[C@H](CCC(=O)O)NC(=O)CSCC(=O)NCCN1C(=O)CSC1=O)[C@@H](C)O)[C@@H](C)O)C(=O)N[C@@H](CO)C(=O)N[C@H](C(=O)N[C@@H](Cc1ccc(O)cc1)C(=O)N[C@@H](CC(C)C)C(=O)N[C@@H](CC(=O)O)C(=O)N[C@@H](CCCCN)C(=O)N[C@@H](CCC(N)=O)C(=O)N[C@@H](C)C(=O)N[C@@H](C)C(=O)NC(C)(C)C(=O)N[C@@H](CCC(=O)O)C(=O)N[C@@H](Cc1ccccc1)C(=O)N[C@H](C(=O)N[C@@H](CC(N)=O)C(=O)N[C@@H](Cc1c[nH]c2ccccc12)C(=O)N[C@@H](CC(C)C)C(=O)N[C@@H](CC(C)C)C(=O)N[C@@H](C)C(=O)NCC(=O)NCC(=O)N1CCC[C@H]1C(=O)N[C@@H](CO)C(=O)N[C@@H](CO)C(=O)NCC(=O)N[C@@H](C)C(=O)N1CCC[C@H]1C(=O)N1CCC[C@H]1C(=O)N1CCC[C@H]1C(=O)N[C@@H](CO)C(=O)N[C@@H](CCCCN)C(N)=O)C(C)C)[C@@H](C)CC)C(=O)O [Compound 201] (X2-EGTFTSDK([γGlu-Palmitoyl])SIYLDKQAA[Aib]EFVNWLLAGGPSSGAPPPSK-NH2) | 105 | 1 to 10 | 99 | 1 to 10 |  | 
3 | CCCCCCCCCCCCCCCC(=O)N[C@@H](CCC(=O)NCCCC[C@H](NC(=O)[C@H](CO)NC(=O)[C@@H]1CCCN1C(=O)[C@@H]1CCCN1C(=O)[C@@H]1CCCN1C(=O)[C@H](C)NC(=O)CNC(=O)[C@H](CO)NC(=O)[C@H](CO)NC(=O)[C@@H]1CCCN1C(=O)CNC(=O)CNC(=O)[C@H](C)NC(=O)[C@H](CC(C)C)NC(=O)[C@H](CC(C)C)NC(=O)[C@H](Cc1c[nH]c2ccccc12)NC(=O)[C@H](CC(N)=O)NC(=O)[C@@H](NC(=O)[C@H](Cc1ccccc1)NC(=O)[C@H](CCC(=O)O)NC(=O)C(C)(C)NC(=O)[C@H](C)NC(=O)[C@H](C)NC(=O)[C@H](CCC(N)=O)NC(=O)[C@H](CCCCN)NC(=O)[C@H](CC(=O)O)NC(=O)[C@H](CC(C)C)NC(=O)[C@H](Cc1ccc(O)cc1)NC(=O)[C@@H](NC(=O)[C@H](CO)NC(=O)[C@H](Cc1ccc(O)cc1)NC(=O)[C@H](CC(=O)O)NC(=O)[C@H](CO)NC(=O)[C@@H](NC(=O)[C@H](Cc1ccccc1)NC(=O)[C@@H](NC(=O)CNC(=O)[C@H](CCCC(=O)O)NC(=O)CSCC(=O)NCCN1CCCCC1=O)[C@@H](C)O)[C@@H](C)O)[C@@H](C)CC)C(C)C)C(N)=O)C(=O)O [Compound 219] | 75 | 1 to 10 | 89 | 10 to 100 |  | 
4 | CCCCCCCCCCCCCCCC(=O)N[C@@H](CCC(=O)NCCCC[C@H](NC(=O)[C@H](CO)NC(=O)[C@@H]1CCCN1C(=O)[C@@H]1CCCN1C(=O)[C@@H]1CCCN1C(=O)[C@H](C)NC(=O)CNC(=O)[C@H](CO)NC(=O)[C@H](CO)NC(=O)[C@@H]1CCCN1C(=O)CNC(=O)CNC(=O)[C@H](C)NC(=O)[C@H](CC(C)C)NC(=O)[C@H](CC(C)C)NC(=O)[C@H](Cc1c[nH]c2ccccc12)NC(=O)[C@H](CC(N)=O)NC(=O)[C@@H](NC(=O)[C@H](Cc1ccccc1)NC(=O)[C@H](CCC(=O)O)NC(=O)C(C)(C)NC(=O)[C@H](C)NC(=O)[C@H](C)NC(=O)[C@H](CCC(N)=O)NC(=O)[C@H](CCCCN)NC(=O)[C@H](CC(=O)O)NC(=O)[C@H](CC(C)C)NC(=O)[C@H](Cc1ccc(O)cc1)NC(=O)[C@@H](NC(=O)[C@H](CO)NC(=O)[C@H](Cc1ccc(O)cc1)NC(=O)[C@H](CC(=O)O)NC(=O)[C@H](CO)NC(=O)[C@@H](NC(=O)[C@H](Cc1ccccc1)NC(=O)[C@@H](NC(=O)CNC(=O)[C@H](CCc1nn[nH]n1)NC(=O)CSCC(=O)NCCN1CCCCC1=O)[C@@H](C)O)[C@@H](C)O)[C@@H](C)CC)C(C)C)C(N)=O)C(=O)O [Compound 221] | 68 | 1 to 10 | 95 | 1 to 10 |  | 
5 | CCCCCCCCCCCCCCCC(=O)N[C@@H](CCC(=O)NCCCC[C@H](NC(=O)[C@H](CO)NC(=O)[C@@H]1CCCN1C(=O)[C@@H]1CCCN1C(=O)[C@@H]1CCCN1C(=O)[C@H](C)NC(=O)CNC(=O)[C@H](CO)NC(=O)[C@H](CO)NC(=O)[C@@H]1CCCN1C(=O)CNC(=O)CNC(=O)[C@H](C)NC(=O)[C@H](CC(C)C)NC(=O)[C@H](CC(C)C)NC(=O)[C@H](Cc1c[nH]c2ccccc12)NC(=O)[C@H](CC(N)=O)NC(=O)[C@@H](NC(=O)[C@H](Cc1ccccc1)NC(=O)[C@H](CCC(=O)O)NC(=O)C(C)(C)NC(=O)[C@H](C)NC(=O)[C@H](C)NC(=O)[C@H](CCC(N)=O)NC(=O)[C@H](CCCCN)NC(=O)[C@H](CC(=O)O)NC(=O)[C@H](CC(C)C)NC(=O)[C@H](Cc1ccc(O)cc1)NC(=O)[C@@H](NC(=O)[C@H](CO)NC(=O)[C@H](Cc1ccc(O)cc1)NC(=O)[C@H](CC(=O)O)NC(=O)[C@H](CO)NC(=O)[C@@H](NC(=O)[C@H](Cc1ccccc1)NC(=O)[C@@H](NC(=O)CNC(=O)[C@@H](Cc1nn[nH]n1)NC(=O)CSCC(=O)NCCN1CCCCC1=O)[C@@H](C)O)[C@@H](C)O)[C@@H](C)CC)C(C)C)C(N)=O)C(=O)O [Compound 224] (X6-[X8]GTFTSDYSIYLDKQAA[Aib]EFVNWLLAGGPSSGAPPPSK([γGlu-Palmitoyl])-NH2) | 76 | 10 to 100 | 98 | 0.1 to 1 |  | 
6 | CCCCCCCCCCCCCCCC(=O)N[C@@H](CCC(=O)NCCCC[C@H](NC(=O)[C@H](CO)NC(=O)[C@@H]1CCCN1C(=O)[C@@H]1CCCN1C(=O)[C@@H]1CCCN1C(=O)[C@H](C)NC(=O)CNC(=O)[C@H](CO)NC(=O)[C@H](CO)NC(=O)[C@@H]1CCCN1C(=O)CNC(=O)CNC(=O)[C@H](C)NC(=O)[C@H](CC(C)C)NC(=O)[C@H](CC(C)C)NC(=O)[C@H](Cc1c[nH]c2ccccc12)NC(=O)[C@H](CC(N)=O)NC(=O)[C@@H](NC(=O)[C@H](Cc1ccccc1)NC(=O)[C@H](CCC(=O)O)NC(=O)C(C)(C)NC(=O)[C@H](C)NC(=O)[C@H](C)NC(=O)[C@H](CCC(N)=O)NC(=O)[C@H](CCCCN)NC(=O)[C@H](CC(=O)O)NC(=O)[C@H](CC(C)C)NC(=O)[C@H](Cc1ccc(O)cc1)NC(=O)[C@@H](NC(=O)[C@H](CO)NC(=O)[C@H](Cc1ccc(O)cc1)NC(=O)[C@H](CC(=O)O)NC(=O)[C@H](CO)NC(=O)[C@@H](NC(=O)[C@H](Cc1ccccc1)NC(=O)[C@@H](NC(=O)CNC(=O)[C@H](CCC(=O)O)NC(=O)CSCC(=O)NCCN1C(=O)c2ccc(C)cc2C1=O)[C@@H](C)O)[C@@H](C)O)[C@@H](C)CC)C(C)C)C(N)=O)C(=O)O [Compound 247] | 110 |  | 102 |  | < 0.1 | 0.1 to 1
7 | CCCCCCCCCCCCCCCC(=O)N[C@@H](CCC(=O)NCCCC[C@H](NC(=O)[C@H](CO)NC(=O)[C@@H]1CCCN1C(=O)[C@@H]1CCCN1C(=O)[C@@H]1CCCN1C(=O)[C@H](C)NC(=O)CNC(=O)[C@H](CO)NC(=O)[C@H](CO)NC(=O)[C@@H]1CCCN1C(=O)CNC(=O)CNC(=O)[C@H](C)NC(=O)[C@H](CC(C)C)NC(=O)[C@H](CC(C)C)NC(=O)[C@H](Cc1c[nH]c2ccccc12)NC(=O)[C@H](CC(N)=O)NC(=O)[C@@H](NC(=O)[C@H](Cc1ccccc1)NC(=O)[C@H](CCC(=O)O)NC(=O)C(C)(C)NC(=O)[C@H](C)NC(=O)[C@H](C)NC(=O)[C@H](CCC(N)=O)NC(=O)[C@H](CCCCN)NC(=O)[C@H](CC(=O)O)NC(=O)[C@H](CC(C)C)NC(=O)[C@H](Cc1ccc(O)cc1)NC(=O)[C@@H](NC(=O)[C@H](CO)NC(=O)[C@H](Cc1ccc(O)cc1)NC(=O)[C@H](CC(=O)O)NC(=O)[C@H](CO)NC(=O)[C@@H](NC(=O)[C@H](Cc1ccccc1)NC(=O)[C@@H](NC(=O)CNC(=O)[C@H](CCC(=O)O)NC(=O)CSCC(=O)NCCN1C(=O)c2cccc3cccc(c23)C1=O)[C@@H](C)O)[C@@H](C)O)[C@@H](C)CC)C(C)C)C(N)=O)C(=O)O [Compound 248] | 105 | 1 to 10 | 80 | 10 to 100 |  | 
